The subject of data set [1] is RSV A strain A2. Description: In vitro antiviral assay against RSV A strain A2 in HEp-2 cells (ELISA, virus titer). The class given is cell-based, respiratory syncytial virus. The conditions noted are these: for IC50: RSV A strain A2 in HEp-2 cells, mean ± SD.
The subject of data set [2] is RSV. Kind of data set: Temperature shift assay (virus attachment at 4 °C vs post-binding). The conditions noted are these: unbound virus washed away, compound added before shift to 37 °C.
Data set [3] concerns RSV A strain. The conditions noted are these: for effect on viral titer, time-of-addition: compound added at 1 h post infection; for inhibitory activity, time-of-addition: compound added at later time points (after 2 h post infection); for time of addition up to which antiviral activity was maintained: post infection.
Data set [4] can be described thus: MTT cytotoxicity assay with non-infected HEp2 cells. The conditions noted are these: human. In general terms: Tetrazolium assays rely on reduction of a dye to a coloured formazan, in cell work by metabolically active cells.
The test system of data set [5] is Vaccinia virus. The conditions noted are these: CC50/IC50VACV ref 16; cited from earlier work.
For data set [6], the system named is A/Puerto Rico/8/34 (H1N1) virus. Also noted: method as in PMID 30108810. The conditions noted are these: CC50/IC50H1N1, A/Puerto Rico/8/34 (H1N1) ref 15; cited from earlier work.
Data set [7] concerns pSARS-CoV-2-S. Also noted: method as in PMID 35746766. The conditions noted are these: CC50/IC50pSARS-CoV-2-S, pseudovirus ref 14; cited from earlier work.
The subject of data set [8] is rVSV-ΔG-MarV-GP. The conditions noted are these: CC50/IC50MarV-GP, HEK293T cells ref 12,13; cited from earlier work.
In data set [9] the test system is rVSV-ΔG-EboV-GP. The conditions noted are these: CC50/IC50EboV-GP, HEK293T cells ref 12,13; cited from earlier work.
Data set [10] concerns SARS-CoV-2. The arrangement: method as in PMID 35746766. The conditions noted are these: CC50/IC50SARS-CoV-2, against various SARS-CoV-2 virus strains ref 14; cited from earlier work.
Data set [11] is described as follows: in vitro. The conditions noted are these: human.
The mark [12] stands for this setting: human respiratory syncytial virus, HEp-2, 50% decrease in virus replication.
Where [13] appears, read: selectivity index, CC50/IC50 ratio, RSV A2 / HEp-2.

Where two headings read alike, the source gives them in different places. Marks after values point to notes of the source that are not given here. Bounds are passed on as bounds.

On to `CN(C)CCC(=O)O[C@@H]1C[C@@H]2CC[C@@]1(C)C2(C)C` [Compound 3b], for which inhibition in data set [1] (setting [12]) was half-maximal at 8.9 ± 2.4 µM (IC50). Further, the SI in data set [1] (setting [13]) turned out to be 111. Moreover, the “anti-RSV activity, temperature shift conditions (B)” value in [2] is “antiviral activity was maintained”. In addition, in data set [3], the “effect on viral titer, time-of-addition” value is recorded as “significant reduction in viral titer”; the “inhibitory activity, time-of-addition” value was “lost their inhibitory activity”; the “time of addition up to which antiviral activity was maintained” value (from here on “time of addition up”) was “up to 2 h”. Moreover, in data set [4], the CC50 at 24 h turned out to be 983 ± 44.2 µM.

Consider `CC1(C)[C@H]2CC[C@]1(C)[C@H](OC(=O)CN1CCOCC1)C2` [Compound 5a], for which, in [5], the SIVACV result is on record as “^d SIVACV = 56”. The molecule further displayed an SI in data set [1] of 83. Besides, the IC50 (commonly the point on the concentration scale where inhibition reaches its midpoint) in data set [1] (setting [12]) stood at 5 ± 1 µM. Also, the SIH1N1 result in data set [6] is given as “^c SIH1N1 = 82”. In addition, the “anti-RSV activity, temperature shift conditions (B)” value in data set [2] is recorded as “antiviral activity was maintained”. Besides, in data set [7], the SIpSARS-CoV-2-S entry is “^e SIpSARS-CoV-2-S = 5”. Besides, in data set [8], the SIMarV-GP entry is given as “^a SIMarV-GP = 5”. Also, the SIEboV-GP entry in data set [9] is “^b SIEboV-GP = 13”. In data set [3], the “effect on viral titer, time-of-addition” value is “significant reduction in viral titer”; the “inhibitory activity, time-of-addition” value is “lost their inhibitory activity”; the “time of addition up” value is on record as “up to 2 h”. This molecule also had a CC50 at 24 h in [4] of 413 ± 35.1 µM.

As for `CC1(C)[C@H]2CC[C@]1(C)[C@H](OC(=O)CCN1CCOCC1)C2` [Compound 5b], the SIVACV entry in data set [5] was “^d SIVACV = 48”. This molecule also yielded an SI in data set [1] of 15. Inhibition in [1] (setting [12]) was half-maximal at 8.5 ± 2.8 µM (IC50). In addition, the SIH1N1 entry in data set [6] is recorded as “^c SIH1N1 = 45”. Also, the SIpSARS-CoV-2-S entry in data set [7] is on record as “^e SIpSARS-CoV-2-S = 18”. In addition, in data set [8], the SIMarV-GP entry is listed as “^a SIMarV-GP = 5”. Further, in data set [9], the SIEboV-GP entry is listed as “^b SIEboV-GP = 36”. Also, the CC50 at 24 h in data set [4] was 127 ± 15.2 µM.

For `CC1(C)[C@H]2CC[C@]1(C)[C@H](OC(=O)CCCN1CCOCC1)C2` [Compound 5c], the SIVACV result in data set [5] is “^d SIVACV = 23”. Moreover, inhibition in [1] (setting [12]) was half-maximal at 5.8 ± 0.9 µM (IC50). Besides, the SI in data set [1] (setting [13]) came to 53. In addition, in data set [4], the CC50 at 24 h came to 307 ± 24.1 µM.

In [1] (setting [12]), `CC1(C)[C@H]2CC[C@]1(C)[C@H](OC(=O)CCN1CCCCC1)C2` [Compound 6b] showed an IC50 of 14.6 ± 1.2 µM. The SI in data set [1] (setting [13]) amounted to 22. In [2], the “anti-RSV activity, temperature shift conditions (B)” value was “antiviral activity was maintained”. For the same molecule, in [3], the “effect on viral titer, time-of-addition” value was “significant reduction in viral titer”; the “inhibitory activity, time-of-addition” value is “lost their inhibitory activity”; the “time of addition up” value is “up to 2 h”. Also, in [4], the CC50 at 24 h amounted to 326 ± 45.6 µM.

Take `CC1(C)[C@H]2CC[C@]1(C)[C@H](OC(=O)CCN1CCN(c3ccccc3)CC1)C2` [Compound 14b, (1S,2R,4S)-1,7,7-Trimethylbicyclo [2.2.1]heptan-2-yl 3-(4-phenylpiperazin-1-yl)propanoate]: the melting point – broadly, the temperature, or range, at which the solid turns liquid – was 83 °C. Further, the IC50 in data set [1] (setting [12]) was 8.1 ± 0.9 µM. Further, in data set [1] (setting [13]), the SI stood at 45. Besides, the CC50 at 24 h in [4] was found to be 366 ± 25.8 µM.

`CCCCN(CCCC)CC(=O)OC1CC2CCC1(C)C2(C)C` (stereo not drawn) [IV (n=1)]: the SIH1N1 entry in [6] is “^c SIH1N1 = 16”. Also, the SIpSARS-CoV-2-S result in data set [7] is recorded as “^e SIpSARS-CoV-2-S = 10”. In [8], the SIMarV-GP result is reported as “^a SIMarV-GP = 6”. Besides, the SISARS-CoV-2 result in [10] is given as “SISARS-CoV-2 = 11–40 *”.

Regarding `CCCCN(CCCC)CCC(=O)OC1CC2CCC1(C)C2(C)C` (stereo not drawn) [IV (n=2)], the SIH1N1 entry in [6] is on record as “^c SIH1N1 = 12”. Further, the SIpSARS-CoV-2-S result in [7] is listed as “^e SIpSARS-CoV-2-S = 29”. In data set [8], the SIMarV-GP result is listed as “^a SIMarV-GP = 15”. In addition, the SISARS-CoV-2 entry in data set [10] is given as “SISARS-CoV-2 = 6–102 *”.

Take `NC(=O)c1ncn([C@@H]2O[C@H](CO)[C@@H](O)[C@H]2O)n1` [Ribavirin, reference compound]: the SI in data set [1] is recorded as 50. Besides, the results for the IC50 in [1] (50% decrease in virus replication) and in [1] (setting [12]) were 80.1 ± 13.5 µM and 80 µM, respectively. In data set [11], this molecule returned a CC50 at 24 h below 4000 µM.

The values above are taken from publication PMC9697025, “Discovery of N-Containing (-)-Borneol Esters as Respiratory Syncytial Virus Fusion Inhibitors” (Pharmaceuticals, 2022).
